Data as given in patent publication US20210261512A1, “NOVEL COMPOUNDS” (INFLAZOME LIMITED, priority 2018, published 2021).

target: NLRP3 (Homo sapiens, UniProt Q96P20); assay: THP-1 cells pyroptosis assay; format: cell-based; design: Seed THP-1 cells (25,000 cells/well) containing 1.0 μg/ml LPS; host or cells: THP-1; conditions: LPS 1.0 μg/ml, nigericin 5 μM, resazurin readout, 10 μM top dose (Example 2: top dose of 30 μM)
Procedure, shortened: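 THP-1 cells (25,000/well) primed with 1 μg/ml LPS in serum-free RPMI, treated with compound (8-point dilution, 10 μM top unless stated; 0.1% DMSO) 3 h at 37°C, then nigericin 5 μM 1 h. Viability read by resazurin (100 μM, 1-2 h) fluorescence; IC50 from 4-parameter fit.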

Sequence of NLRP3 (Q96P20 whole entry): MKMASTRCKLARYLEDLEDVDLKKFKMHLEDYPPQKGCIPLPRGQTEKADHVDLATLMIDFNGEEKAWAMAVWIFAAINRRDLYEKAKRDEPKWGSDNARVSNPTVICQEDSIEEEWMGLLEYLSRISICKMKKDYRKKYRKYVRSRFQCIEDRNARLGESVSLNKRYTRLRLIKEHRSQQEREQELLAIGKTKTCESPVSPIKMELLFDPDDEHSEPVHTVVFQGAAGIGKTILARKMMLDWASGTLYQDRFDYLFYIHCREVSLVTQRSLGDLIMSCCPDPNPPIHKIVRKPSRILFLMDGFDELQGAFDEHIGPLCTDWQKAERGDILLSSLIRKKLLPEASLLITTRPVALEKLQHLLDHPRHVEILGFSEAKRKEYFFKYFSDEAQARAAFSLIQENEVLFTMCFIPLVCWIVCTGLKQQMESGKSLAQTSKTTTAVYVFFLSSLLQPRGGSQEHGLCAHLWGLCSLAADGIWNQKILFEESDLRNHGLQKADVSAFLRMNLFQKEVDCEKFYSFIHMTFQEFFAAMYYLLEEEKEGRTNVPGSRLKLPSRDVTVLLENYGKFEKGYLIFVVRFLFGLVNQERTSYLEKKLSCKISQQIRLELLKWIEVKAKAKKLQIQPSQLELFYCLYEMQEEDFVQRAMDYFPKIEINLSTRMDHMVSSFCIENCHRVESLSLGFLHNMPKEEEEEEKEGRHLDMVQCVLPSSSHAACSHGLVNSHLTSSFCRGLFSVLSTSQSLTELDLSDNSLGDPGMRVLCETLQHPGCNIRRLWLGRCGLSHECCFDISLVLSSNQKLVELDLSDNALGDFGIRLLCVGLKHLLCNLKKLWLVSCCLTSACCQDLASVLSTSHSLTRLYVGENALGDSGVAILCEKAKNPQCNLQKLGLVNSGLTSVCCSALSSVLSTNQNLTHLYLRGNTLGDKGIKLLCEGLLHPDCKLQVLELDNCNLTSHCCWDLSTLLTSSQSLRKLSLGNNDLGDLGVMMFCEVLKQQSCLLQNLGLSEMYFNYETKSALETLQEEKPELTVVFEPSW

Compound	IC50 [µM]
CN1CC2CCN(S(=O)(=O)c3nnc(Nc4c5c(cc6c4CCC6)CCC5)[nH]3)C2C1 (stereo not shown) [Example 142, N-(1,2,3,5,6,7-hexahydro-s-indacen-4-yl)-5-((5-methylhexahydropyrrolo[3,4-b]pyrrol-1 (2H)-yl)sulfonyl)-4H-1,2,4-triazol-3-amine]	≤ 5
COc1cc(-c2cc(F)cc(C(C)C)c2Cc2nnc(S(=O)(=O)c3ccccc3)[nH]2)ccn1 [Example 155, 4-(5-fluoro-3-isopropyl-2-((5-(phenylsulfonyl)-4H-1,2,4-triazol-3-yl)-methyl)phenyl)-2-methoxypyridine]	≤ 10
O=S(=O)(c1nnc(Nc2c3c(cc4c2CCC4)CCC3)[nH]1)C1CCOCC1 [Example 157, N-(1,2,3,5,6,7-hexahydro-s-indacen-4-yl)-5-((tetrahydro-2H-pyran-4-yl)sulfonyl)-4H-1,2,4-triazol-3-amine]	≤ 10
CN(C)CC1CCN(S(=O)(=O)c2nnc(Cc3c4c(cc5c3CCC5)CCC4)[nH]2)C1 (stereo not shown) [Example 158, 1-(1-((5-((1,2,3,5,6,7-hexahydro-s-indacen-4-yl)methyl)-4H-1,2,4-triazol-3-yl)sulfonyl)pyrrolidin-3-yl)-N,N-dimethylmethanamine]	≤ 5
COc1cc(-c2ccc3c(c2Cc2nnc(S(=O)(=O)N4CCC(CN(C)C)C4)[nH]2)CCC3)ccn1 (stereo not shown) [Example 160, 1-(1-((5-((5-(2-methoxypyridin-4-yl)-2,3-dihydro-1H-inden-4-yl)-methyl)-4H-1,2,4-triazol-3-yl)sulfonyl)pyrrolidin-3-yl)-N,N-dimethylmethanamine]	≤ 5
CC(C)c1cc(F)cc(C(C)C)c1Cc1nnc(S(=O)(=O)N2CCC(CN(C)C)C2)[nH]1 (stereo not shown) [Example 161, 1-(1-((5-(4-fluoro-2,6-diisopropylbenzyl)-4H-1,2,4-triazol-3-yl)-sulfonyl)pyrrolidin-3-yl)-N,N-dimethylmethanamine]	≤ 5
O=S(=O)(c1cccnn1)c1n[nH]c(Nc2c3c(cc4c2CCC4)CCC3)n1 [Example 167, N-(1,2,3,5,6,7-hexahydro-s-indacen-4-yl)-3-(pyridazin-3-ylsulfonyl)-1H-1,2,4-triazol-5-amine]	≤ 5
O=S(=O)(c1ccnnc1)c1n[nH]c(Nc2c3c(cc4c2CCC4)CCC3)n1 [Example 168, N-(1,2,3,5,6,7-hexahydro-s-indacen-4-yl)-3-(pyridazin-4-ylsulfonyl)-1H-1,2,4-triazol-5-amine]	≤ 5
O=S(=O)(c1cncnc1)c1n[nH]c(Nc2c3c(cc4c2CCC4)CCC3)n1 [Example 169, N-(1,2,3,5,6,7-hexahydro-s-indacen-4-yl)-3-(pyrimidin-5-ylsulfonyl)-1H-1,2,4-triazol-5-amine]	≤ 10
O=S(=O)(c1ccccn1)c1nnc(Nc2c3c(cc4c2CCC4)CCC3)[nH]1 [Example 170, N-(1,2,3,5,6,7-hexahydro-s-indacen-4-yl)-5-(pyridin-2-ylsulfonyl)-4H-1,2,4-triazol-5-amine]	≤ 1
COc1ccccc1S(=O)(=O)c1nnc(Nc2c3c(cc4c2CCC4)CCC3)[nH]1 [Example 173, N-(1,2,3,5,6,7-hexahydro-s-indacen-4-yl)-5-((2-methoxyphenyl)sulfonyl)-4H-1,2,4-triazol-3-amine]	≤ 1
CN1Cc2ccc(S(=O)(=O)c3n[nH]c(Nc4c5c(cc6c4CCC6)CCC5)n3)cc2C1=O [Example 180, 6-((5-((1,2,3,5,6,7-hexahydro-s-indacen-4-yl)amino)-1H-1,2,4-triazol-3-yl)sulfonyl)-2-methylisoindolin-1-one]	≤ 5
COc1ccc(S(=O)(=O)c2nnc(Nc3c4c(cc5c3CCC5)CCC4)[nH]2)cc1 [Example 183, N-(1,2,3,5,6,7-hexahydro-s-indacen-4-yl)-5-((4-methoxyphenyl)sulfonyl)-4H-1,2,4-triazol-3-amine]	≤ 5
N#Cc1ccccc1S(=O)(=O)c1nnc(Nc2c3c(cc4c2CCC4)CCC3)[nH]1 [Example 185, 2-((5-((1,2,3,5,6,7-hexahydro-s-indacen-4-yl)amino)-4H-1,2,4-triazol-3-yl)sulfonyl)benzonitrile]	≤ 0.5
CC(C)(O)c1ccc(S(=O)(=O)c2nnc(Nc3c4c(cc5c3CCC5)CCC4)[nH]2)cc1 [Example 186, 2-(4-((5-((1,2,3,5,6,7-hexahydro-s-indacen-4-yl)amino)-4H-1,2,4-triazol-3-yl)sulfonyl)phenyl) propan-2-01]	≤ 0.5
O=S(=O)(c1ccccc1)c1nnc(Nc2c(-c3ccncc3)ccc3c2CCC3)[nH]1 [Example 189, 5-(phenylsulfonyl)-N-(5-(pyridin-4-yl)-2,3-dihydro-1H-inden-4-yl)-4H-1,2,4-triazol-3-amine]	≤ 10
COc1cc(-c2ccc3c(c2Nc2nnc(S(=O)(=O)c4ccccc4)[nH]2)CCO3)ccn1 [Example 190, N-(5-(2-methoxypyridin-4-yl)-2,3-dihydrobenzofuran-4-yl)-5-(phenylsulfonyl)-4H-1,2,4-triazol-3-amine]	≤ 5
CC(C)c1cc(F)cc(-c2ccncc2)c1Nc1nnc(S(=O)(=O)c2ccccc2)[nH]1 [Example 191, N-(4-fluoro-2-isopropyl-6-(pyridin-4-yl)phenyl)-5-(phenylsulfonyl)-4H-1,2,4-triazol-3-amine]	≤ 10
O=S(=O)(c1cnn(C2CC2)c1)c1nnc(Nc2c3c(cc4c2CCC4)CCC3)[nH]1 [Example 193, 3-((1-cyclopropyl-H-pyrazol-4-yl)sulfonyl)-N-(1,2,3,5,6,7-hexahydro-s-indacen-4-yl)-1H-1,2,4-triazol-5-amine]	≤ 5
O=S(=O)(c1nnc(Nc2c3c(cc4c2CCC4)CCC3)[nH]1)C1CCCC(N2CCCC2)C1 (stereo not shown) [Example 194, N-(1,2,3,5,6,7-hexahydro-s-indacen-4-yl)-3-((3-(pyrrolidin-1-yl)cyclohexyl)sulfonyl)-1H-1,2,4-triazol-5-amine]	≤ 10
CC(C)n1ncc(-c2ccncc2)c1Nc1nnc(S(=O)(=O)N2CCC(N(C)C)CC2)[nH]1 [Example 198, 1-((5-((1-isopropyl-4-(pyridin-4-yl)-1H-pyrazol-5-yl)amino)-4H-1,2,4-triazol-3-yl)sulfonyl)-N,N-dimethylpiperidin-4-amine]	≤ 10
CN(C)C1CCN(S(=O)(=O)c2nnc(Nc3c(-c4ccnn4C)ccc4c3CCC4)[nH]2)CC1 [Example 205, N,N-dimethyl-1-((5-((5-(1-methyl-1H-pyrazol-5-yl)-2,3-dihydro-1H-inden-4-yl)amino)-4H-1,2,4-triazol-3-yl)sulfonyl)piperidin-4-amine]	≤ 10
Cc1ccc(C(C)C)c(Nc2nnc(S(=O)(=O)N3CCC(N(C)C)CC3)[nH]2)c1 [Example 206, 1-((5-((2-isopropyl-5-methylphenyl)amino)-4H-1,2,4-triazol-3-yl)sulfonyl)-N,N-dimethylpiperidin-4-amine]	≤ 10

Second part, the molecule after the results:

IC50 [µM]	Compound
≤ 5	O=S(=O)(c1ccncc1)c1nnc(Nc2c3c(cc4c2CCC4)CCC3)[nH]1 [Example 171, N-(1,2,3,5,6,7-hexahydro-s-indacen-4-yl)-5-(pyridin-4-ylsulfonyl)-4H-1,2,4-triazol-3-amine]
≤ 1	CC(C)(O)c1cccc(S(=O)(=O)c2nnc(Nc3c4c(cc5c3CCC5)CCC4)[nH]2)c1 [Example 172, 2-(3-((5-((1,2,3,5,6,7-hexahydro-s-indacen-4-yl)amino)-4H-1,2,4-triazol-3-yl)sulfonyl)phenyl)propan-2-ol]
≤ 5	Cc1cccc(S(=O)(=O)c2nnc(Nc3c4c(cc5c3CCC5)CCC4)[nH]2)c1 [Example 174, N-(1,2,3,5,6,7-hexahydro-s-indacen-4-yl)-5-(m-tolylsulfonyl)-4H-1,2,4-triazol-3-amine]
≤ 5	COc1cccc(S(=O)(=O)c2nnc(Nc3c4c(cc5c3CCC5)CCC4)[nH]2)c1 [Example 175, N-(1,2,3,5,6,7-hexahydro-s-indacen-4-yl)-5-((3-methoxyphenyl)sulfonyl)-4H-1,2,4-triazol-3-amine]
≤ 5	O=S(=O)(c1cccnc1)c1nnc(Nc2c3c(cc4c2CCC4)CCC3)[nH]1 [Example 177, N-(1,2,3,5,6,7-hexahydro-s-indacen-4-yl)-5-(pyridin-3-ylsulfonyl)-4H-1,2,4-triazol-3-amine]
≤ 5	O=S(=O)(c1cccc(F)c1)c1nnc(Nc2c3c(cc4c2CCC4)CCC3)[nH]1 [Example 178, 5-((3-fluorophenyl)sulfonyl)-N-(1,2,3,5,6,7-hexahydro-s-indacen-4-yl)-4H-1,2,4-triazol-3-amine]
≤ 5	O=S(=O)(c1ccc(F)cc1)c1nnc(Nc2c3c(cc4c2CCC4)CCC3)[nH]1 [Example 181, 5-((4-fluorophenyl)sulfonyl)-N-(1,2,3,5,6,7-hexahydro-s-indacen-4-yl)-4H-1,2,4-triazol-3-amine]
≤ 5	Cc1ccc(S(=O)(=O)c2nnc(Nc3c4c(cc5c3CCC5)CCC4)[nH]2)cc1 [Example 182, N-(1,2,3,5,6,7-hexahydro-s-indacen-4-yl)-5-tosyl-4H-1,2,4-triazol-3-amine]
≤ 5	N#Cc1ccc(S(=O)(=O)c2nnc(Nc3c4c(cc5c3CCC5)CCC4)[nH]2)cc1 [Example 184, 4-((5-((1,2,3,5,6,7-hexahydro-s-indacen-4-yl)amino)-4H-1,2,4-triazol-3-yl)sulfonyl)benzonitrile]
≤ 1	Cc1ccccc1S(=O)(=O)c1nnc(Nc2c3c(cc4c2CCC4)CCC3)[nH]1 [Example 187, N-(1,2,3,5,6,7-hexahydro-s-indacen-4-yl)-5-(o-tolylsulfonyl)-4H-1,2,4-triazol-3-amine]
≤ 5	N#Cc1cccc(S(=O)(=O)c2nnc(Nc3c4c(cc5c3CCC5)CCC4)[nH]2)c1 [Example 188, 3-((5-((1,2,3,5,6,7-hexahydro-s-indacen-4-yl)amino)-4H-1,2,4-triazol-3-yl)sulfonyl)benzonitrile]
